{"source": "patent US8124793B2", "about": "“Derivatives of ethylene methanedisulfonate as cancer chemotherapeutic agents” (priority 2007, dated 2012)", "assay_type_in_all_cases": "cell-based", "key": {"KD488": {"test_system": "KD488", "assay": "NCI screen, growth of human tumor cells: Lymphoma KD488"}, "HL-60 (TB)": {"test_system": "HL-60 (TB)", "assay": "NCI screen, growth of human tumor cells: Leukemia HL-60 (TB)", "conditions": "HL-60 (TB) (Leukemia), 10^−4 molar", "procedure": "(§1) In the NCI screening process, each compound was tested and described by a minimum of 60 data points. The test data include, but are not limited to the type of cancer, the molar concentration used in the screen, and the percent growth of the cancer. In some cases, NMR and elemental analysis were used for structural assignment."}, "UO-31": {"test_system": "UO-31", "assay": "NCI screen, growth of human tumor cells: Renal Cancer UO-31", "conditions": "UO-31 (Renal Cancer), 10^−4 molar", "procedure": "as §1"}, "SR": {"test_system": "SR", "assay": "NCI screen, growth of human tumor cells: Leukemia SR", "conditions": "SR", "procedure": "as §1"}, "HOP-62": {"test_system": "HOP-62", "assay": "NCI screen, growth of human tumor cells: Non-Small Cell Lung HOP-62", "conditions": "HOP-62, 10^−4 molar", "procedure": "as §1"}, "COLO205": {"test_system": "COLO205", "assay": "NCI screen, growth of human tumor cells: Colon Cancer COLO205", "conditions": "COLO205 (Colon Cancer), 10^−4 molar", "procedure": "as §1"}, "K562": {"test_system": "K562", "assay": "NCI screen, growth of human tumor cells: Leukemia K562", "conditions": "K562 (Leukemia), 10^−4 molar", "procedure": "as §1"}, "HS 578T": {"test_system": "HS 578T", "assay": "NCI screen, growth of human tumor cells: Breast Cancer HS 578T", "conditions": "HS 578T (Breast Cancer), 10^−4 molar", "procedure": "as §1"}, "MOLT-4": {"test_system": "MOLT-4", "assay": "NCI screen, growth of human tumor cells: Leukemia MOLT-4", "conditions": "MOLT-4 (Leukemia), 10^−4 molar", "procedure": "as §1"}, "MDA-MB-435": {"test_system": "MDA-MB-435", "assay": "NCI screen, growth of human tumor cells: Breast Cancer MDA-MB-435", "conditions": "MDA-MB-435 (Breast Cancer), 10^−4 molar", "procedure": "as §1"}, "human cancer cells": {"test_system": "human cancer cells", "assay": "NCI screen summary over the cancers tested (negative growth of human cancer cells)", "conditions": "10^−4 M conc.; cancers with negative growth / cancers tested", "procedure": "as §1\nThe derivatives in the tables are grouped using the same category as in the tables 1-6."}, "MALME-3M": {"test_system": "MALME-3M", "assay": "NCI screen, growth of human tumor cells: Melanoma MALME-3M", "conditions": "MALME-3M, 10^−4 molar", "procedure": "as §1"}, "SNB-75": {"test_system": "SNB-75", "assay": "NCI screen, growth of human tumor cells: CNS Cancer SNB-75", "conditions": "SNB-75 (CNS Cancer), 10^−4 molar", "procedure": "as §1"}, "CAKI-1": {"test_system": "CAKI-1", "assay": "NCI screen, growth of human tumor cells: Renal Cancer CAKI-1", "conditions": "CAKI-1 (Renal Cancer), 10^−4 molar", "procedure": "as §1"}, "ACHN": {"test_system": "ACHN", "assay": "NCI screen, growth of human tumor cells: Renal Cancer ACHN", "conditions": "ACHN (Renal Cancer), 10^−4 molar", "procedure": "as §1"}, "SF-268": {"test_system": "SF-268", "assay": "NCI screen, growth of human tumor cells: CNS Cancer SF-268", "conditions": "SF-268 (CNS Cancer), 10^−4 molar", "procedure": "as §1"}, "U-251": {"test_system": "U-251", "assay": "NCI screen, growth of human tumor cells: CNS Cancer U-251", "conditions": "U-251 (CNS Cancer), 10^−4 molar", "procedure": "as §1"}, "UACC-62": {"test_system": "UACC-62", "assay": "NCI screen, growth of human tumor cells: Melanoma UACC-62", "conditions": "UACC-62 (Melanoma), 10^−4 molar", "procedure": "as §1"}, "SF-539": {"test_system": "SF-539", "assay": "NCI screen, growth of human tumor cells: CNS Cancer SF-539", "conditions": "SF-539 (CNS Cancer), 10^−4 molar", "procedure": "as §1"}, "SNB-19": {"test_system": "SNB-19", "assay": "NCI screen, growth of human tumor cells: CNS Cancer SNB-19", "conditions": "SNB-19 (CNS Cancer), 10^−4 molar", "procedure": "as §1"}, "NCI-H460": {"test_system": "NCI-H460", "assay": "NCI screen, growth of human tumor cells: Non-Small Cell Lung NCI-H460", "conditions": "NCI-H460 (Non-Small Cell Lung), 10^−4 molar", "procedure": "as §1"}, "CCRF-CEM": {"test_system": "CCRF-CEM", "assay": "NCI screen, growth of human tumor cells: Leukemia CCRF-CEM", "conditions": "CCRF-CEM (Leukemia), 10^−4 molar", "procedure": "as §1"}, "HCT-116": {"test_system": "HCT-116", "assay": "NCI screen, growth of human tumor cells: Colon Cancer HCT-116", "conditions": "HCT-116 (Colon Cancer), 10^−4 molar", "procedure": "as §1"}, "PC-3": {"test_system": "PC-3", "assay": "NCI screen, growth of human tumor cells: Prostate Cancer PC-3", "conditions": "PC-3 (Prostate Cancer), 10^−4 molar", "procedure": "as §1"}, "LOXIMVI": {"test_system": "LOXIMVI", "assay": "NCI screen, growth of human tumor cells: Melanoma LOXIMVI", "conditions": "LOXIMVI (Melanoma), 10^−4 molar", "procedure": "as §1"}}}
{"smiles": "O=C(c1cccc2ccccc12)C1(Br)S(=O)(=O)OCCOS1(=O)=O", "note": "[compound 679048]", "values": [{"measurement": "% Growth", "setting": "KD488; KD488, 10^−4 molar", "result": 54, "unit": "%"}, {"measurement": "% Growth", "setting": "KD488; KD488, 10^−5 molar", "result": 51, "unit": "%"}, {"measurement": "% Growth", "setting": "KD488; KD488, 10^−6 molar", "result": 34, "unit": "%"}, {"measurement": "% Growth", "setting": "KD488; KD488, 10^−7 molar", "result": 100, "unit": "%"}, {"measurement": "% Growth", "setting": "KD488; KD488, 10^−8 molar", "result": 52, "unit": "%"}]}
{"smiles": "CC1=C(CC2(C(=O)C(=O)OCC3COC(C)(C)O3)S(=O)(=O)OCCOS2(=O)=O)C(=O)c2ccccc2C1=O", "note": "(centres unmarked) [NSC 737277]", "values": [{"measurement": "percent of growth of human tumor cells", "setting": "HL-60 (TB)", "result": "−33", "unit": "%"}, {"measurement": "percent of growth of human tumor cells", "setting": "UO-31", "result": 22, "unit": "%"}, {"measurement": "% Growth", "setting": "SR; 10^−4 molar", "result": "−25", "unit": "%"}, {"measurement": "% Growth", "setting": "SR; 10^−5 molar", "result": 50, "unit": "%"}, {"measurement": "% Growth", "setting": "HOP-62", "result": "−84", "unit": "%"}, {"measurement": "percent of growth of human tumor cells", "setting": "COLO205", "result": "−8", "unit": "%"}, {"measurement": "percent of growth of human tumor cells", "setting": "K562", "result": 5, "unit": "%"}, {"measurement": "percent of growth of human tumor cells", "setting": "HS 578T", "result": 24, "unit": "%"}, {"measurement": "percent of growth of human tumor cells", "setting": "MOLT-4", "result": "−12", "unit": "%"}, {"measurement": "percent of growth of human tumor cells", "setting": "MDA-MB-435", "result": "−11", "unit": "%"}, {"measurement": "Percentage of cancers showing negative growth cancers tested", "setting": "human cancer cells", "result": "10^−4 M conc. = 6/9 = 67%"}]}
{"smiles": "COC(=O)c1cc(/C=C/C(=O)Cc2ccccc2)cn1S(=O)(=O)c1ccccc1", "note": "[compound 679534]", "values": [{"measurement": "% Growth", "setting": "MALME-3M", "result": "−88", "unit": "%"}]}
{"smiles": "CC1S(=O)(=O)OCCOS1(=O)=O", "note": "[NSC 372239]", "values": [{"measurement": "percent of growth of human tumor cells", "setting": "SNB-75", "result": 28, "unit": "%"}, {"measurement": "percent of growth of human tumor cells", "setting": "CAKI-1", "result": 20, "unit": "%"}, {"measurement": "percent of growth of human tumor cells", "setting": "ACHN", "result": 20, "unit": "%"}, {"measurement": "percent of growth of human tumor cells", "setting": "K562", "result": 12, "unit": "%"}, {"measurement": "percent of growth of human tumor cells", "setting": "SF-268", "result": 29, "unit": "%"}, {"measurement": "percent of growth of human tumor cells", "setting": "MOLT-4", "result": 12, "unit": "%"}, {"measurement": "percent of growth of human tumor cells", "setting": "U-251", "result": 16, "unit": "%"}, {"measurement": "percent of growth of human tumor cells", "setting": "UACC-62", "result": "−14", "unit": "%"}, {"measurement": "percent of growth of human tumor cells", "setting": "SF-539", "result": 28, "unit": "%"}, {"measurement": "percent of growth of human tumor cells", "setting": "SNB-19", "result": 26, "unit": "%"}, {"measurement": "percent of growth of human tumor cells", "setting": "NCI-H460", "result": 2, "unit": "%"}, {"measurement": "percent of growth of human tumor cells", "setting": "CCRF-CEM", "result": "−6", "unit": "%"}, {"measurement": "Percentage of cancers showing negative growth cancers tested", "setting": "human cancer cells", "result": "2/12 = 17%"}]}
{"smiles": "O=S1(=O)OCCOS(=O)(=O)[C-]1S(=O)(=O)c1cccc2ccccc12.[Na+]", "note": "[NSC 679044]", "values": [{"measurement": "percent of growth of human tumor cells", "setting": "HCT-116", "result": "−52", "unit": "%"}, {"measurement": "percent of growth of human tumor cells", "setting": "K562", "result": 15, "unit": "%"}, {"measurement": "percent of growth of human tumor cells", "setting": "PC-3", "result": 23, "unit": "%"}, {"measurement": "percent of growth of human tumor cells", "setting": "LOXIMVI", "result": 23, "unit": "%"}, {"measurement": "Percentage of cancers showing negative growth cancers tested", "setting": "human cancer cells", "result": "10^−4 M conc. = 1/4 = 25%"}]}
